Results on three compounds are retold here after paper PMC9250534, “Synthesis and direct assay of large macrocycle diversities by combinatorial late-stage modification at picomole scale” (Nature Communications, 2022).

Where “and” joins values, the source holds several entries; their conditions need not be identical. Identical values can stand only once. Like-named read-outs stand apart in the source and are kept apart here. Where only a bound is given, the exact number is not on record here.

For data set [1], the target named is T1, MDM2 (Homo sapiens, UniProt Q00987). Nature of the data set: MDM2 binding (FP53 displacement) by HPLC fractions of resynthesized hit reactions. Here is the method: For hits from the MDM2 screen, reactions were performed in the same way but at a 50 nmol scale, and purified with the same method but a 10–80% gradient of solvent B and over 22 min. Fractions were lyophilized and dissolved in 40 μL of DMSO, 160 μL of water was added, and 5 μL of each fraction was transferred to a 384-well plate (Nunc, 264705), and 15 μL of premixed MDM2/FP53 peptide were added (final concentrations: 1.2 μM MDM2, 50 nM FP53, 5% DMSO).

The target of data set [2] is T1, MDM2. Put plainly: Kd of MDM2 binders by surface plasmon resonance (SPR). The class given is binding. The settings on record: unlabeled macrocycles; triplicate. Here is the method:
Experiments were performed using a GE Healthcare Biacore 8 K instrument. MDM2 (10 μg/mL) was dissolved in 10 mM MES buffer (pH 6.0) and immobilized on three channels of a CM5 series S chip (Cytiva, 29104988) using EDC/NHS amine coupling conditions in running buffer (10 mM PBS pH 7.4, 150 mM NaCl, 3 mM KCl, and 0.005% v/v Tween 20). Typical immobilization level was 6000 to 7000 resonance units (RUs). The reference cell was treated the same way without MDM2. For the measurement of binding kinetics and dissociation constants, five serial dilutions (3-fold) of macrocycles plus a DMSO blank were prepared in running buffer (10 mM PBS pH 7.4, 150 mM NaCl, 3 mM KCl, and 0.005% v/v Tween 20, and 0.5% v/v DMSO) and analyzed in single cycle kinetics mode with contact and dissociation times of 120 s and 60 s, respectively. The data was collected and analyzed using the Biacore 8 K Control Software.
Supplementary Figure 14. Binding of macrocycles to MDM2 measured by SPR. a, Single-cycle SPR sensorgrams for fluorescein-labeled macrocycles, positive control nutlin-3a (not fluorescein labeled), and negative controls (thrombin inhibitors; not fluorescein labeled). RU, response unit. b, Single-cycle SPR sensorgrams for macrocycles M6, M7, M8 and M10 (not fluorescein-labeled), performed in triplicate.
(1 picture or pasted object on this page, not shown here)
(In general: SPR reads the build-up and loss of mass on a sensor chip optically.)

For data set [3], the target named is T1, MDM2. Put plainly: IC50 of purified MDM2-binding macrocycles, fluorescence polarization competition with FP53. The settings on record: for IC50: HPLC-purified macrocycle, FP displacement of fluorescent reporter peptide; for anisotropy: replicates 1-3. The procedure: Volumes of 5 μL of purified macrocycles (20 mM in DMSO) were serial diluted two-fold in 100% DMSO in a low dead-volume ECHO source plate. Using acoustic droplet transfer, 150 nL of each dilution was transferred to a 384 well low volume polystyrene plate (Nunc, 264705). […] Fluorescence anisotropy was measured as described above. The percentage of bound inhibitor was calculated using the following equation4 %boundinhibitor=N−X/N−P×100 where N is the average anisotropy of the DMSO controls, X is the anisotropy value obtained for each well, and P is the average anisotropy of the unbound probe. The IC50s were determined by plotting the percent of bound inhibitor against the logarithm of the corresponding macrocycle concentration, and the curves were fitted in GraphPad Prism 6 as described above.
(In general: Fluorescence polarisation rises when a labelled molecule tumbles more slowly, as on binding a larger partner.)

The conditions of data set [4]: prodrug; cited from earlier work.
Data set [5] deals with MDM2. Particulars: MDM2 inhibitor in clinical studies; literature value, no reference given; read-out: HTRF IC50; cited from earlier work.

T1 sequence (Q00987 whole entry): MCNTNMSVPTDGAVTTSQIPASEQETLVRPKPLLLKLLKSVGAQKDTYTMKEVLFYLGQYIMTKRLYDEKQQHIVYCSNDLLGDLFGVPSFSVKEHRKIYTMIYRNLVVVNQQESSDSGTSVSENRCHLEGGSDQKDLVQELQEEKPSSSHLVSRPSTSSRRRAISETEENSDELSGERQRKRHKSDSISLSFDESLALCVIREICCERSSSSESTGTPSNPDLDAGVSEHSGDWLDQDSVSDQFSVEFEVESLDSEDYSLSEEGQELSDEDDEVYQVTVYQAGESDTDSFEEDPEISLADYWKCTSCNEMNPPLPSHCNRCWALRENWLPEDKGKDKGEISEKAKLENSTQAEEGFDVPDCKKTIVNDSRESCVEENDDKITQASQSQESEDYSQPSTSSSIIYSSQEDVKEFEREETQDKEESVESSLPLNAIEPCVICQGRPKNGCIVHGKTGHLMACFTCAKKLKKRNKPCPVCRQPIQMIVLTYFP

As usually defined, the Kd is the free concentration of one partner at which half of the binding sites on the other are occupied at equilibrium, for simple one-to-one binding. A high value points to lower affinity. By IC50 is commonly meant the point on the concentration scale where inhibition reaches its midpoint. As to `O=C(NC[C@@H]1NC(=O)[C@H]2CCCN(C2)C(=O)CCSSCCNC(=O)[C@H](Cc2c[nH]c3ccccc23)NC1=O)c1ccc(Cl)s1` [M6], the “Fraction bound (fraction fluorescent probe displaced)” value (from here on “Fraction bound”) is -0.09 on MDM2 [1] (HPLC Fraction 1 of acylation reaction); 0.04 at MDM2 [1] (HPLC Fraction 2 of acylation reaction); 0.0145 on MDM2 [1] (HPLC Fraction 3 of acylation reaction); 0.04 on MDM2 [1] (HPLC Fraction 4 of acylation reaction); -0.0633 at MDM2 [1] (HPLC Fraction 5 of acylation reaction); -0.0373 on MDM2 [1] (HPLC Fraction 6 of acylation reaction). For the same compound, the “Fraction bound” value on MDM2 [1] (HPLC Fraction 7 of acylation reaction) is given as -0.0114; on MDM2 [1] (HPLC Fraction 8 of acylation reaction) it was -0.0114; on MDM2 [1] (HPLC Fraction 9 of acylation reaction), 0.0664; on MDM2 [1] (HPLC Fraction 10 of acylation reaction), -0.0373; at MDM2 [1] (HPLC Fraction 11 of acylation reaction), -0.09; on MDM2 [1] (HPLC Fraction 12 of acylation reaction) it was -0.0633. Also, the “Fraction bound” value at MDM2 [1] (HPLC Fraction 13 of acylation reaction) was -0.0373; on MDM2 [1] (HPLC Fraction 14 of acylation reaction) it was 0.27; on MDM2 [1] (HPLC Fraction 15 of acylation reaction), -0.22; at MDM2 [1] (HPLC Fraction 16 of acylation reaction), -0.0114; at MDM2 [1] (HPLC Fraction 17 of acylation reaction), 0.04; on MDM2 [1] (HPLC Fraction 18 of acylation reaction) it was -0.0373. For the same compound, the entries for the “Fraction bound” value at MDM2 [1] (HPLC Fraction 19 of acylation reaction) and on MDM2 [1] (HPLC Fraction 20 of acylation reaction) were -0.24 and -0.0633, respectively. In addition, the Kd at MDM2 [2] was 600 ± 300 nM. The IC50 at MDM2 [3] (average of 3 replicates, read-out: IC50 Average) was 2400 nM; at MDM2 [3] (replicate 1, read-out: IC50 Replicate 1) it was 2600 nM; on MDM2 [3] (replicate 2, read-out: IC50 Replicate 2), 1900 nM; at MDM2 [3] (replicate 3, read-out: IC50 Replicate 3), 2600 nM. Also, the “displacement of fluorescent peptide probe from MDM2” value on MDM2 [3] (HPLC-purified macrocycles, FP competition) is “efficiently displaced”. The anisotropy at MDM2 [3] (Log[Macrocycle] M -4.0) was 25 and 23 and 22; at MDM2 [3] (Log[Macrocycle] M -4.3) it was 31 and 28 and 30; on MDM2 [3] (Log[Macrocycle] M -4.6), 33 (2×) and 32; on MDM2 [3] (Log[Macrocycle] M -4.9), 38 and 32 and 40; on MDM2 [3] (Log[Macrocycle] M -5.2), 47 and 39 and 44; on MDM2 [3] (Log[Macrocycle] M -5.5) it was 51 and 45 and 47. Besides, the anisotropy at MDM2 [3] (Log[Macrocycle] M -5.8) was 62 and 52 and 55; on MDM2 [3] (Log[Macrocycle] M -6.1) it was 69 and 59 and 62; at MDM2 [3] (Log[Macrocycle] M -6.4) it was 80 and 67 and 64; on MDM2 [3] (Log[Macrocycle] M -6.7), 83 and 68 and 74; at MDM2 [3] (Log[Macrocycle] M -7.0), 78 and 72 and 75; at MDM2 [3] (Log[Macrocycle] M -7.3), 86 and 75 and 80. Also, the anisotropy at MDM2 [3] (Log[Macrocycle] M -7.6) was 89 and 77 and 85; at MDM2 [3] (Log[Macrocycle] M -7.9), 88 and 77 and 82; on MDM2 [3] (Log[Macrocycle] M -8.2) it was 89 and 77 and 85; on MDM2 [3] (Log[Macrocycle] M -8.5), 91 and 80 and 78.
`CCCCCCOC(=O)NC(=N)c1ccc(NCc2nc3cc(C(=O)N(CCC(=O)OCC)c4ccccn4)ccc3n2C)cc1` [dabigatran etexilate]: the oral availability in data set [4] is on record as less than 6.5%.
For `COc1cc(C(=O)O)ccc1NC(=O)[C@@H]1N[C@@H](CC(C)(C)C)[C@](C#N)(c2ccc(Cl)cc2F)[C@H]1c1cccc(Cl)c1F` [idasanutlin (RG7388), idasanutlin], in the data set with MDM2 [5], the IC50 was […].
